The source of these data is EP2127643A1, “Oral pellet composition with time-delayed release” (Bayer Schering Pharma Aktiengesellschaft, priority 2008, dated 2009).

As usually defined, the pIC50 is −log10 of the IC50, conventionally taken in molar units. A higher pIC50 goes with a low IC50.

pIC50: −log10 of the molar value. Where two headings read alike, the source gives them in different places. A value given as a limit tells only on which side of the number the result lay.

The conditions of series [1]: human, cited from earlier work.
The target of the next series is CYP-2C9 (Homo sapiens, UniProt P11712). In words: CYP test: inhibition of cytochrome P450 isoenzymes by excipients. The class given is biochemical.
In another series the target is CYP-3A4 (Homo sapiens, UniProt P08684). The series is described as above. The class given is biochemical.
Another series addresses CYP-2C19 (Homo sapiens, UniProt P33261). The series is described as above. The class given is biochemical.
The conditions of series [2]: rats; paclitaxel oral 30 min after oral morin; cited from earlier work.
The conditions of series [3]: human; oral paclitaxel with simultaneous cyclosporin (Pgp inhibitor); cited from earlier work.
The mark [4] stands for this setting: concentration of excipient at which 50 % of the isoenzyme is inhibited.

CYP-3A4, sequence (P08684 whole entry): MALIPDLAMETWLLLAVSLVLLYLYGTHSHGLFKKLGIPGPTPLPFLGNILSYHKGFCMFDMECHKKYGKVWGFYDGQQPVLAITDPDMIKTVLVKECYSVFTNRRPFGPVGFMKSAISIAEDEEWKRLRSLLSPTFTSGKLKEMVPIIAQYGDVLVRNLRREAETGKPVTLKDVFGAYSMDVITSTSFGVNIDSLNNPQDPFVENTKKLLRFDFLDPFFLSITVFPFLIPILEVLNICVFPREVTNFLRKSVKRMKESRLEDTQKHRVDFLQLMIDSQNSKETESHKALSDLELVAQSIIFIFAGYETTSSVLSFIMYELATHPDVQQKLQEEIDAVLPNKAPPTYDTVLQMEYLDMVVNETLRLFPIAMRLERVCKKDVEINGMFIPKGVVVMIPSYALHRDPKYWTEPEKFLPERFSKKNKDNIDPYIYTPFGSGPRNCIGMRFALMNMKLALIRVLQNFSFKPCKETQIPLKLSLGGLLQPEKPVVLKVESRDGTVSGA
CYP-2C9, sequence (P11712 whole entry): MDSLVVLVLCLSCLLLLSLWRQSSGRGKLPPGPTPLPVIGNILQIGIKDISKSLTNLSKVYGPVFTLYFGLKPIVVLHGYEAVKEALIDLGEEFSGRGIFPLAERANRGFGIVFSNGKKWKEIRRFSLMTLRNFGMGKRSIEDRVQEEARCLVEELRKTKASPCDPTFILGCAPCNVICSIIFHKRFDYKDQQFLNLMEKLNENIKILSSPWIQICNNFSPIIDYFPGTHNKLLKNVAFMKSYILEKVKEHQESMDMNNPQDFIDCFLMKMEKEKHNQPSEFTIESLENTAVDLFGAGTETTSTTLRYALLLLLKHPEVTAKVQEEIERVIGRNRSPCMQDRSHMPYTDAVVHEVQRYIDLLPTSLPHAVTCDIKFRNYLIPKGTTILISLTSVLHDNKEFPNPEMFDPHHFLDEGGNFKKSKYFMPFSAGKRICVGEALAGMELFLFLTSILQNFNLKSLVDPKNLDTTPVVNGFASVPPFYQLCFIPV
CYP-2C19, sequence (P33261 whole entry): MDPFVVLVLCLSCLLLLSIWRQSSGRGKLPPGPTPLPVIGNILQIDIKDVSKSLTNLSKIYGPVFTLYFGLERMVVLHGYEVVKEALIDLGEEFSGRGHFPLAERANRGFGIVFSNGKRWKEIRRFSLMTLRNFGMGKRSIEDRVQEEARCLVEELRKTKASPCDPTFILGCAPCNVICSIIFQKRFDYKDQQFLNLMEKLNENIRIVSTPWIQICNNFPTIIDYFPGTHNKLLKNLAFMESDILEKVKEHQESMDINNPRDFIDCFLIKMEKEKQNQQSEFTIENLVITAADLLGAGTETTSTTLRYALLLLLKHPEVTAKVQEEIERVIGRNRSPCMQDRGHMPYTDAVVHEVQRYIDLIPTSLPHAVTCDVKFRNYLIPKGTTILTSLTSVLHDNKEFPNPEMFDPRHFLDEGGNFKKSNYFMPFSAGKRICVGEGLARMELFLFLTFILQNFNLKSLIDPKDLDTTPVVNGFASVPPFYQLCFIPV

As to `C#C[C@]1(O)CC[C@H]2[C@@H]3CCc4cc(O)ccc4[C@H]3CC[C@@]21C` [Ethinylestradiol], the “Anteil des beobachteten First-Pass-Effekts durch direkte Konjugation (vor allem Sulfatierung in der Darmwand)” value in series [1] (gut wall) is 65%. Further, in series [1] (oral), the “humane absolute Bioverfügbarkeit” value was roughly 45%.
Turning to `CCCCCCCC/C=C\CCCCCCCC(=O)OCC` [Ethyloleat], the pIC50 against CYP-2C9 is 3.20; against CYP-3A4, 3.42; against CYP-2C19, 2.98.
`CC(=O)O[C@H]1C(=O)[C@@]2(C)[C@H]([C@H](OC(=O)c3ccccc3)[C@]3(O)C[C@H](OC(=O)[C@H](O)[C@@H](NC(=O)c4ccccc4)c4ccccc4)C(C)=C1C3(C)C)[C@]1(OC(C)=O)CO[C@@H]1C[C@@H]2O` [Paclitaxel]: the “Erhöhung der AUC” value in series [2] is reported as no more than 70%. Also, in series [3], the “Bioverfügbarkeit erhöht um Faktor” value is recorded as 9.
Turning to `CCOCCOCCO` [Transcutol®P, Ethoxydiglycol], the IC50 on CYP-2C9 (concentration of excipient at which 50 % of the isoenzyme is inhibited, read-out: IC50, µg/ml CYP-2C9 (converted)) was 11.2 mM; on CYP-3A4 (concentration of excipient at which 50 % of the isoenzyme is inhibited, read-out: IC50, µg/ml CYP-3A4 (converted)), 5.63 mM; at CYP-2C19 (concentration of excipient at which 50 % of the isoenzyme is inhibited, read-out: IC50, µg/ml CYP-2C19 (converted)), 10.4 mM.
Regarding Glycerolmonocaprylat [Imwitor®308], the “IC50, µg/ml CYP-2C9” value against CYP-2C9 (setting [4]) is recorded as 5,0 µg/ml. The “IC50, µg/ml CYP-3A4” value at CYP-3A4 (setting [4]) worked out at 29 µg/mL. The “IC50, µg/ml CYP-2C19” value at CYP-2C19 (setting [4]) is 6,9 µg/ml.
